ChEMBL document CHEMBL1201862, “PubChem BioAssay data set” (2004)
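Method: 48-hour compound exposure of cells in 96-well plates, five concentrations, linear interpolation of endpoints. GI50 marks 50% less growth.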 Activity calls are given as the source filed them. No stated cut-off is given here; in the data, active = GI50 up to about 1.1 µM and inactive = higher.

Tests used:
Experiment in all cases: NCI-60 cell line screen, 48 h
Malme-3M = system: Malme-3M
OVCAR-4 = system: OVCAR-4
OVCAR-3 = system: OVCAR-3
SF-295 = system: SF-295
SN12C = system: SN12C
OVCAR-5 = system: OVCAR-5
HCC 2998 = system: HCC 2998
CAKI-1 = system: CAKI-1
SK-OV-3 = system: SK-OV-3
SNB-19 = system: SNB-19
EKVX = system: EKVX
SK-MEL-5 = system: SK-MEL-5
HCT-15 = system: HCT-15
UACC-62 = system: UACC-62
SNB-78 = system: SNB-78
UO-31 = system: UO-31
CCRF-CEM = system: CCRF-CEM
PC-3 = system: PC-3
Hs-578T = system: Hs-578T
MCF7 = system: MCF7

Structure (SMILES) | GI50 (Malme-3M) | GI50 (OVCAR-4) | GI50 (OVCAR-3) | GI50 (SF-295) | GI50 (SN12C) | GI50 (OVCAR-5) | GI50 (HCC 2998) | GI50 (CAKI-1) | GI50 (SK-OV-3) | GI50 (SNB-19) | GI50 (EKVX) | GI50 (SK-MEL-5) | GI50 (HCT-15) | GI50 (UACC-62) | GI50 (SNB-78) | GI50 (UO-31) | GI50 (CCRF-CEM) | GI50 (PC-3) | GI50 (Hs-578T) | GI50 (MCF7)
Cc1ccc(S(=O)OC23CC4CC(CC(C4)C2)C3)cc1 (stereo not given) | > 100 µM (inactive) | > 100 µM (inactive) | > 100 µM (inactive) | > 100 µM (inactive) | > 100 µM (inactive) | > 100 µM (inactive) | > 100 µM (inactive) | > 100 µM (inactive) | > 100 µM (inactive) | > 100 µM (inactive) | > 100 µM (inactive) | > 100 µM (inactive) | > 100 µM | > 100 µM (inactive) | > 100 µM (inactive) | 41.2 µM (inactive) |  |  |  | 
[O-][Cl+3]([O-])([O-])O.c1ccc(/N=c2\nc(N3CCOCC3)ss2)cc1 | 14.8 µM (inactive) | 15.7 µM (inactive) |  | 18.7 µM (inactive) | 15.1 µM (inactive) | 28.9 µM (inactive) | 21.1 µM (inactive) | 20.2 µM (inactive) | > 100 µM (inactive) | 30.5 µM (inactive) | 21 µM (inactive) | 34.2 µM (inactive) | 15.5 µM | 13.8 µM (inactive) | 22 µM (inactive) | 28.6 µM (inactive) | 0.016 µM (active) |  |  | 
Cc1ccc(/C=N\NC2c3cc(Cl)ccc3Nc3nc(O)nc(C)c32)cc1 (stereo not given) | > 100 µM (inactive) |  | > 100 µM (inactive) | > 100 µM (inactive) | 65.3 µM (inactive) |  | 95.7 µM (inactive) |  | > 100 µM (inactive) | > 100 µM (inactive) | > 100 µM (inactive) |  |  | > 100 µM (inactive) | > 100 µM (inactive) | > 100 µM (inactive) | 96.6 µM (inactive) |  |  | 
CC1COC(C)(C)P(=O)(c2ccccc2)C1 (stereo not given) | > 100 µM (inactive) |  | > 100 µM (inactive) | > 100 µM (inactive) | > 100 µM (inactive) | > 100 µM (inactive) | > 100 µM (inactive) |  | > 100 µM (inactive) | > 100 µM (inactive) | > 100 µM (inactive) | > 100 µM (inactive) | > 100 µM | > 100 µM (inactive) | > 100 µM (inactive) | > 100 µM (inactive) | > 100 µM (inactive) |  |  | 
Clc1nc(Cl)c(CBr)c(Cl)n1 | 4.16 µM (inactive) | 6.34 µM (inactive) | 5.45 µM (inactive) | 6.11 µM (inactive) | 2.63 µM (inactive) | 3.22 µM (inactive) | 10.8 µM (inactive) | 10.9 µM (inactive) | 15.2 µM (inactive) | 16 µM (inactive) | 22.1 µM (inactive) | 4.01 µM (inactive) | 2.65 µM | 5.08 µM (inactive) |  | 3.33 µM (inactive) | 0.427 µM (active) | 6.19 µM (inactive) | 3.8 µM (inactive) | 5.37 µM (inactive)
Cc1cc(S(=O)(=O)N=C2N(Cc3ccccc3)CCN2Cc2ccccc2)c(S)cc1Cl | > 100 µM (inactive) | > 100 µM (inactive) | > 100 µM (inactive) | 48.9 µM (inactive) | > 100 µM (inactive) | > 100 µM (inactive) | > 100 µM (inactive) | > 100 µM (inactive) | > 100 µM (inactive) | > 100 µM (inactive) | > 100 µM (inactive) | > 100 µM (inactive) | > 100 µM | > 100 µM (inactive) |  | 17.7 µM (inactive) | > 100 µM (inactive) | 27.7 µM (inactive) | > 100 µM (inactive) | > 100 µM (inactive)
O=[N+]([O-])C(C(Cl)=C(Cl)Cl)=C(n1nnc2ccccc21)n1nnc2ccccc21 | 21.7 µM (inactive) | 36.9 µM (inactive) | 24.9 µM (inactive) | > 56 µM (inactive) | 22.6 µM (inactive) | 47.1 µM (inactive) | 49.1 µM (inactive) | 30.3 µM (inactive) | > 43.6 µM (inactive) | > 86.7 µM (inactive) | > 59.3 µM (inactive) | 34.2 µM (inactive) | 25.9 µM | 16.1 µM (inactive) |  | 25.6 µM (inactive) | 18.6 µM (inactive) | 37.1 µM (inactive) | 35.8 µM (inactive) | 28.1 µM (inactive)
COc1cc(C2c3cc4c(cc3OC(NCCO)C2C)OCO4)cc(OC)c1OC (stereo not given) | 0.431 µM (active) | 12.7 µM (inactive) | 0.244 µM (active) | 0.274 µM (active) | 0.658 µM (active) | 7.48 µM (inactive) | 0.824 µM (active) | 0.485 µM (active) | 0.553 µM (active) | 1.32 µM (inactive) | 13.1 µM (inactive) | 0.323 µM (active) | 0.347 µM | 0.378 µM (active) |  | 1.52 µM (inactive) | 0.197 µM (active) | 0.418 µM (active) | 0.325 µM (active) | 0.344 µM (active)
